US9090628B2, “Benzoxazepin compounds selective for PI3K P110 delta and methods of use” (GENENTECH, INC., priority 2011, dated 2015)

What was measured:
p110 delta = p110 delta (Homo sapiens (Human), UniProt O00329); assay: PI3K isoform inhibition assay, p110 delta (fluorescence polarization displacement); format: biochemical
p110 alpha = p110 alpha (Homo sapiens (Human), UniProt P42336); assay: PI3K isoform inhibition assay, p110 alpha (for alpha/delta selectivity); conditions: ratio of biochemical IC50 values
Chain of p110 alpha (P42336 whole entry, canonical isoform): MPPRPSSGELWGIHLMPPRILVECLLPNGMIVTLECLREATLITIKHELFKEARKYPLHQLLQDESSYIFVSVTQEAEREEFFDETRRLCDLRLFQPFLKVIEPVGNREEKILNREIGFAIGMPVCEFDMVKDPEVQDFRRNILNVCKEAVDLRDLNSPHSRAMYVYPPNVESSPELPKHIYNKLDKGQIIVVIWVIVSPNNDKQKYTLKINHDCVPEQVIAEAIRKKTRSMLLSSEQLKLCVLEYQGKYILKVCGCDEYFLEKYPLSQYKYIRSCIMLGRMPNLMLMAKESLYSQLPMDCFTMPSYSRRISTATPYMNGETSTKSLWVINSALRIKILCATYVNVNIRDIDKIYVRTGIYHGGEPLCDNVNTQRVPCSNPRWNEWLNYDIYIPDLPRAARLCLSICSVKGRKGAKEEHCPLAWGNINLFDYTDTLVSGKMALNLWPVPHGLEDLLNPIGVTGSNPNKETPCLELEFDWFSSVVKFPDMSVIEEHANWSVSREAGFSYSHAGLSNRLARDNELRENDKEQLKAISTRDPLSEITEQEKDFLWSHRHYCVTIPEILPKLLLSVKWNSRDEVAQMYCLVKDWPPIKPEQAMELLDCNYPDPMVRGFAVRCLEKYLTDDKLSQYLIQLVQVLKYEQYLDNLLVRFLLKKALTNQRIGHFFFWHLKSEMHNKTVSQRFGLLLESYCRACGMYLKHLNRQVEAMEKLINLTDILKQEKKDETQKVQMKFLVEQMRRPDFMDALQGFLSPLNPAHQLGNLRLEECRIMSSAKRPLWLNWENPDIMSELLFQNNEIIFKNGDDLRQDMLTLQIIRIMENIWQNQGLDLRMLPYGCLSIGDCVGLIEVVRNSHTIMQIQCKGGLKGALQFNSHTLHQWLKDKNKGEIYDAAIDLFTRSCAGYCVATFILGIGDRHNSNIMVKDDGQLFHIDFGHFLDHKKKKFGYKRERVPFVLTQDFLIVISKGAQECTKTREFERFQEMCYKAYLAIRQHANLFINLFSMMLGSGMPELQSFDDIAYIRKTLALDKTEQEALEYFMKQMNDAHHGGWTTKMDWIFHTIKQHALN
Chain of p110 alpha (P27986 whole entry partner, canonical isoform): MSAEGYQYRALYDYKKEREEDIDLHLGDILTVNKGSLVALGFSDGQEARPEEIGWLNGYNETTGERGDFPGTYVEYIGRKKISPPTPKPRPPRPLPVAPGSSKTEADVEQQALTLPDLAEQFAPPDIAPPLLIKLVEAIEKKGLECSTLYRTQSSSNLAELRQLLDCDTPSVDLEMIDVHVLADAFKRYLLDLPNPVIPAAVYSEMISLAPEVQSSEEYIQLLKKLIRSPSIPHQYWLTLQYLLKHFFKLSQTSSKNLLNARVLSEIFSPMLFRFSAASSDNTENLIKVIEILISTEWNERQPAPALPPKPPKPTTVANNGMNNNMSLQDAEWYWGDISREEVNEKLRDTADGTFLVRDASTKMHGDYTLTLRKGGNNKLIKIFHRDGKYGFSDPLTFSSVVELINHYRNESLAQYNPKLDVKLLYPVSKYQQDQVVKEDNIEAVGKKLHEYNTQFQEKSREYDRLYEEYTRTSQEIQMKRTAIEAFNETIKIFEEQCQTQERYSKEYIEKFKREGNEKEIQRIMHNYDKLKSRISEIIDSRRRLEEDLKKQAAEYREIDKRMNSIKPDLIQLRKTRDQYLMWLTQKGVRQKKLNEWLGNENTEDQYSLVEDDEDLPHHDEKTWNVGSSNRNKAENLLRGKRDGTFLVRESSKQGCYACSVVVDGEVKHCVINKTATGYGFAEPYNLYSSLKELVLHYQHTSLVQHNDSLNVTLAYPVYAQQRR
Summary of the method: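 Fluorescence polarization displacement of a fluorescent PIP3 probe from GRP-1 detector by PI3K-formed PIP3; p110α/p85α at 40 ng/mL with 10 μM PIP2 substrate.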

Chain of p110 delta (O00329 whole entry, canonical isoform): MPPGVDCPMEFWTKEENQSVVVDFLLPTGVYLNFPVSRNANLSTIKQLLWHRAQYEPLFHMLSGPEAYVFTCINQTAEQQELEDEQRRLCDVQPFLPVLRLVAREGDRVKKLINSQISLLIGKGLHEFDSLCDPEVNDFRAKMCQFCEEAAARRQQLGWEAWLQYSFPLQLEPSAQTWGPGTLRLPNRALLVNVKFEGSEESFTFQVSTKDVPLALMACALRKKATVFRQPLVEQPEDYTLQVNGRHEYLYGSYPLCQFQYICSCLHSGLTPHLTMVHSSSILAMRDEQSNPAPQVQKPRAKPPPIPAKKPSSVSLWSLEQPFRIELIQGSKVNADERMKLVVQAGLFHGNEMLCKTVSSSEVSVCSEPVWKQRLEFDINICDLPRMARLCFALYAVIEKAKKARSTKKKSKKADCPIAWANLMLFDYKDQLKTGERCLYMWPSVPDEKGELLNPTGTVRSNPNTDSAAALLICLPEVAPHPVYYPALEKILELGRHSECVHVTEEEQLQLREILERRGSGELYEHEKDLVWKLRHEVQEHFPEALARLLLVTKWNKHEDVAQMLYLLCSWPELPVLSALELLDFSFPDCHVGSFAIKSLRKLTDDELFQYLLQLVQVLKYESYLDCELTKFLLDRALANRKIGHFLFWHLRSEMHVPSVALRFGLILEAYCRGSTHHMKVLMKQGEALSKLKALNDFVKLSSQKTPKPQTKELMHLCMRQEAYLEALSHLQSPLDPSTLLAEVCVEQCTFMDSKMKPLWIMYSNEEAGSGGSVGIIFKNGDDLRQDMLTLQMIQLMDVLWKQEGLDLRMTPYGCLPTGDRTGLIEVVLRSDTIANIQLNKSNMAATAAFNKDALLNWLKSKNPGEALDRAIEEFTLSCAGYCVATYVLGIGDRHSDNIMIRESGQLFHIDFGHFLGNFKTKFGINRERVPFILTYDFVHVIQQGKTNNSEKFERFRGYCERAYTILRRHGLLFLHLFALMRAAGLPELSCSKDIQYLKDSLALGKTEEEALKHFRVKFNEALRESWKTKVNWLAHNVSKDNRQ
Chain of p110 delta (P27986 whole entry partner, canonical isoform): as the sequence (P27986 whole entry partner, canonical isoform) above

IC50 (p110 delta) [nM] | IC50 p110 alpha/IC50 p110 delta (p110 alpha) | SMILES
0.288 | 23 | Cc1nc(-c2cn3c(n2)-c2ccc(N4CCCC4CN(C)C)cc2OCC3)n(C(C)C)n1 (stereo not shown) [Example 346, 1-[1-[2-(2-isopropyl-5-methyl-1,2,4-triazol-3-yl)-5,6-dihydroimidazo[1,2-d][1,4]benzoxazepin-9-yl]pyrrolidin-2-yl]-N,N-dimethyl-methanamine]
5.53 | 47.5 | Cc1nc(-c2cn3c(n2)-c2cc([C@@H](C)N4CCN(C(C)(C)CO)CC4)c(F)cc2OCC3)n(C(C)C)n1 [Example 347, (R)-2-(4-(1-(9-fluoro-2-(1-isopropyl-3-methyl-1H-1,2,4-triazol-5-yl)-5,6-dihydrobenzo[f]imidazo[1,2-d][1,4]oxazepin-10-yl)ethyl)piperazin-1-yl)-2-methylpropan-1-ol]
0.445 | 31.4 | Cc1nc(-c2cn3c(n2)-c2ccc(N4CCCC4CN(C)C)cc2OCC3)n(C(C)C)n1 (stereo not shown) [Example 348, 1-[1-[2-(2-isopropyl-5-methyl-1,2,4-triazol-3-yl)-5,6-dihydroimidazo[1,2-d][1,4]benzoxazepin-9-yl]pyrrolidin-2-yl]-N,N-dimethyl-methanamine]
4.21 | 18.1 | Cc1nc(-c2cn3c(n2)-c2cc(C(C)N4CCN(CC(C)(C)O)CC4)c(C)cc2OCC3)n(C(C)C)n1 (stereo not shown) [Example 349, 1-[4-[1-[2-(2-isopropyl-5-methyl-1,2,4-triazol-3-yl)-9-methyl-5,6-dihydroimidazo[1,2-d][1,4]benzoxazepin-l0-yl]ethyl]piperazin-1-yl]-2-methyl-propan-2-ol]
1.99 | 212 | Cc1nc(-c2cn3c(n2)-c2cc([C@H](C)N4CCN(C(C)(C)CO)CC4)c(F)cc2OCC3)n(C(C)C)n1 [Example 350, (S)-2-(4-(1-(9-fluoro-2-(1-isopropyl-3-methyl-1H-1,2,4-triazol-5-yl)-5,6-dihydrobenzo[f]imidazo[1,2-d][1,4]oxazepin-10-yl)ethyl)piperazin-1-yl)-2-methylpropan-1-ol]
2.21 | 16.6 | Cc1nc(-c2cn3c(n2)-c2cc(-c4ccnn4[C@@H]4CCCN(C5COC5)C4)c(F)cc2OCC3)n(C(C)C)n1 [Example 351, (R)-9-fluoro-2-(1-isopropyl-3-methyl-1H-1,2,4-triazol-5-yl)-10-(1-(1-(oxetan-3-yl)piperidin-3-yl)-1H-pyrazol-5-yl)-5,6-dihydrobenzo[f]imidazo[1,2-d][1,4]oxazepine]
11.5 | 18 | Cc1nc(-c2cn3c(n2)-c2cc(-c4ccnn4[C@H]4CCCN(C5COC5)C4)c(F)cc2OCC3)n(C(C)C)n1 [Example 352, (S)-9-fluoro-2-(1-isopropyl-3-methyl-1H-1,2,4-triazol-5-yl)-10-(1-(1-(oxetan-3-yl)piperidin-3-yl)-1H-pyrazol-5-yl)-5,6-dihydrobenzo[f]imidazo[1,2-d][1,4]oxazepine]
0.314 | 151 | Cc1nc(-c2cn3c(n2)-c2cc(-c4ccnn4C4CCCN(C(C)(C)CO)C4)c(F)cc2OCC3)n(C(C)C)n1 [Example 353, (R)-2-(3-(5-(9-fluoro-2-(1-isopropyl-3-methyl-1H-1,2,4-triazol-5-yl)-5,6-dihydrobenzo[f]imidazo[1,2-d][1,4]oxazepin-10-yl)-1H-pyrazol-1-yl)piperidin-1-yl)-2-methylpropan-1-ol]
0.66 | 14.5 | Cc1nc(-c2cn3c(n2)-c2cc(-c4cnn(C)c4C4CC(N(C)C)CCO4)c(F)cc2OCC3)n(C(C)C)n1 (stereo not shown) [Example 354, 2-[4-[9-fluoro-2-(2-isopropyl-5-methyl-1,2,4-triazol-3-yl)-5,6-dihydroimidazo[1,2-d][1,4]benzoxazepin-10-yl]-2-methyl-pyrazol-3-yl]-N,N-dimethyl-tetrahydropyran-4-amine]
0.415 | 46.4 | Cc1nc(-c2cn3c(n2)-c2cc(-c4ccnn4C4CCCN(C(C)(C)CO)C4)c(F)cc2OCC3)n(C(C)C)n1 [Example 355, (R)-2-(3-(5-(9-fluoro-2-(1-isopropyl-3-methyl-1H-1,2,4-triazol-5-yl)-5,6-dihydrobenzo[f]imidazo[1,2-d][1,4]oxazepin-10-yl)-1H-pyrazol-1-yl)piperidin-1-yl)-2-methylpropan-1-ol]
1.05 | 45.5 | COc1cc2c(cc1[C@@H](C)N1CCN(C(C)(C)C)CC1)-c1nc(-c3nc(C)nn3C(C)C)cn1CCO2 [Example 356, (R)-10-(1-(4-tert-butylpiperazin-1-yl)ethyl)-2-(1-isopropyl-3-methyl-1H-1,2,4-triazol-5-yl)-9-methoxy-5,6-dihydrobenzo[f]imidazo[1,2-d][1,4]oxazepine]
0.784 | 116 | COc1cc2c(cc1[C@H](C)N1CCN(C(C)(C)C)CC1)-c1nc(-c3nc(C)nn3C(C)C)cn1CCO2 [Example 357, (S)-10-(1-(4-tert-butylpiperazin-1-yl)ethyl)-2-(1-isopropyl-3-methyl-1H-1,2,4-triazol-5-yl)-9-methoxy-5,6-dihydrobenzo[f]imidazo[1,2-d][1,4]oxazepine]
1.56 | 67.1 | Cc1nc(-c2cn3c(n2)-c2cc(-c4cnn(C)c4C4CCCN(C(C)C)C4)c(F)cc2OCC3)n(C(C)C)n1 (stereo not shown) [Example 358, 9-fluoro-2-(2-isopropyl-5-methyl-1,2,4-triazol-3-yl)-10-[5-(1-isopropyl-3-piperidyl)-1-methyl-pyrazol-4-yl]-5,6-dihydroimidazo[1,2-d][1,4]benzoxazepine]
0.37 | 54.1 | Cc1nc(-c2cn3c(n2)-c2cc(-c4cnn(C)c4C4CCCN(C(C)C)C4)c(F)cc2OCC3)n(C(C)C)n1 (stereo not shown) [Example 359, 9-fluoro-2-(2-isopropyl-5-methyl-1,2,4-triazol-3-yl)-10-[5-(1-isopropyl-3-piperidyl)-1-methyl-pyrazol-4-yl]-5,6-dihydroimidazo[1,2-d][1,4]benzoxazepine]
0.311 | 24 | Cc1nc(-c2cn3c(n2)-c2ccc(-c4cn[nH]c4C4CCCN(C(C)C)C4)cc2OCC3)n(C(C)C)n1 (stereo not shown) [Example 360, 2-(2-isopropyl-5-methyl-1,2,4-triazol-3-yl)-9-[5-(1-isopropyl-3-piperidyl)-1H-pyrazol-4-yl]-5,6-dihydroimidazo[1,2-d][1,4]benzoxazepine]
0.972 | 23.6 | Cc1nc(-c2cn3c(n2)-c2ccc(-c4cn[nH]c4C4CCCN(C(C)C)C4)cc2OCC3)n(C(C)C)n1 (stereo not shown) [Example 361, 2-(2-isopropyl-5-methyl-1,2,4-triazol-3-yl)-9-[5-(1-isopropyl-3-piperidyl)-1H-pyrazol-4-yl]-5,6-dihydroimidazo[1,2-d][1,4]benzoxazepine]
2.1 | 85.9 | Cc1nc(-c2cn3c(n2)-c2cc([C@H](C)N4CCN(C(C)(C)CO)CC4)ncc2OCC3)n(C(C)C)n1 [Example 364, (S)-2-(4-(1-(2-(1-isopropyl-3-methyl-1H-1,2,4-triazol-5-yl)-5,6-dihydroimidazo[1,2-d]pyrido[4,3-f][1,4]oxazepin-10-yl)ethyl)piperazin-1-yl)-2-methylpropan-1-ol]
